Source: patent US20250179126A1, “A NOVEL PEPTIDE FROM A PHOTOSYNTHETIC BACERIUM DIRECTLY TARGETS MITOCHONDRIA TO TRIGGER APOPTOSIS IN ADVANCED PROSTATE CANCER CELLS” (priority 2022, published 2025)

Columns and labels:
[1] = tested on: DU145 prostate cancer cells; assay: MTT cell viability assay, DU145 prostate cancer cells; type: cell-based, human; details: DU145 (p53-mutant, AR−), 24-72 hr, paclitaxel 1 nM
Excerpt: Cell viability was detected by MTT assays, and the control (PBS-treated) cells were considered 100% viable. Mean±SE (N=3). *P<0.05, **P<0.01, ***P<0.001.
(§1) Cell lines and culture: Human cancer and noncancer (immortalized and nonimmortalized) cell lines were obtained from the American Type Culture Collection [prostate cancer (PC3, DU145 and LNCaP), normal prostate (CRL11611), breast cancer (MCF-7), ovarian cancer (SK-OV3 adenocarcinoma), lung cancer (A549)]. MDD2 breast cancer cells (p53 dominant-negative) were provided courtesy of Dr Andrei V. Gudkov, Roswell Park Cancer Institute. 20 All cell lines were cultured in MEM-E (Invitrogen) supplemented with 10% heat-inactivated fetal bovine serum (Atlanta Biological, Inc.), 100 units/mL penicillin, and 100 μg/mL streptomycin at 37° C. in 5% CO2.

[2] = tested on: LNCaP prostate cancer cells; assay: MTT cell viability assay, LNCaP prostate cancer cells; type: cell-based, human; details: LNCaP (p53 wild-type, AR+), 24-72 hr; paclitaxel 1 nM
Experimental: as §1

[3] = tested on: PC3 prostate cancer cells; assay: MTT cell viability assay, PC3 prostate cancer cells; type: cell-based, human; details: PC3 (p53-null, AR−), 24-72 hr, paclitaxel 1 nM
Experimental: as §1

[4] = tested on: normal prostate cells CRL11611; assay: MTT cell viability assay, normal prostate CRL11611 cells; type: cell-based, human; details: normal prostate CRL11611 (p53+, AR+), 24-72 hr, paclitaxel 1 nM
Excerpt: FIG. 4A-4D: Effect of peptides on prostate cancer cell lines with differences in p53 and AR expression status. […] Control (PBS)-treated cells were considered to have 100% viability. Mean±SE (N=3).
as §1
Cytotoxicity assay: The MTT assay was performed as we previously described (Cha et al., Cancer Research 2020, 80: 1615-1623).

LNCaP cells = assay: Annexin-V apoptosis assay by flow cytometry, LNCaP; type: cell-based, human; details: 48 hr, Ptxl 1 nM, p28 50 μM, aurA/aurB 0.5-50 μM
Experimental: (§2) FIG. 7A-7D: Determination of apoptotic cell death. Prostate cancer cell lines (7A: LNCaP, 7B: DU145 and 7C: PC3) and normal prostate CRL11611 cells (7D) were exposed to the indicated agents for 48 hr and stained using apoptosis assay kits according to the manufacturer's instructions. The samples were analyzed by flow cytometry. Mean±SE (N=3).
(§3) After 48 hr, annexin-V apoptosis assays (Thermo Fisher Scientific) were conducted to detect apoptotic cells. At least 10,000 cells in each case were analyzed by FACS (RRC, UIC).

DU145 cells = assay: Annexin-V apoptosis assay by flow cytometry, DU145; type: cell-based, human; details: DU145, 48 hr; Ptxl 1 nM, p28 50 μM, aurA/aurB 0.5-50 μM
Experimental: as §2, §3

PC3 cells = assay: Annexin-V apoptosis assay by flow cytometry, PC3; type: cell-based, human; details: PC3, 48 hr; Ptxl 1 nM, p28 50 μM, aurA/aurB 0.5-50 μM
Experimental: as §2, §3

[5] = tested on: normal prostate CRL11611 cells; assay: Annexin-V apoptosis assay by flow cytometry, normal prostate CRL11611; type: cell-based, human; details: normal CRL11611, 48 hr; Ptxl 1 nM, p28 50 μM, aurA/aurB 0.5-50 μM
Experimental: as §2, §3

PC3 xenograft tumors = assay: PC3 xenograft animal model; type: in vivo, athymic mice; details: end of treatment, four weeks i.p.; aurB 5 mg/kg daily, Ptxl 10 mg/kg once a week
Excerpt: FIG. 10A-10D: Inhibition of PC3 xenograft tumor growth. 10A, When the s.c. tumors reached ˜5 mm, athymic mice were randomized into control (PBS) and i.p. treatment groups. Mean±SE (N=5). *P<0.01. […] 10C, At the end of treatment, tumors were dissected and weighed. * P<0.01. 10D, In sections of tumors from the control group, there was a marked increase in Ki-67-positive proliferating cells (stained brown and counterstained with haematoxylin, ×40), and only a few apoptotic cells were observed, as determined by TUNEL and caspase-3 (Casp-3) staining. There was an apparent sharp reduction in Ki-67-positive proliferating cells and a higher number of TUNEL-positive apoptotic cells in the aurB-treated group compared to the control group. Similarly, Casp-3 expression in aurB-treated tumors was increased markedly compared with that in untreated controls.
Xenograft animal model: Human prostate cancer cells (PC3) were injected s.c. into the right flanks of 5- to 6-week-old male athymic mice 78. When tumors reached 5 mm in diameter, animals were randomized into control and treatment groups. […] All animals were weighed twice a week. At necropsy, tumors were dissected and weighed. Statistical comparisons were performed by one-way analysis of variance (ANOVA) (control vs treatment). Tumor samples were fixed overnight in 10% buffered formalin. Fixation was followed by dehydration, clearing and infiltration. Samples were then embedded in paraffin, and 4 μm sections were cut on a microtome. Ki67 (LabVision) staining was performed on the tissue sections using a Vector Vectastain Elite ABC Kit. The TUNEL assay was performed on the sections using a Millipore Sigma ApopTag® Peroxidase In Situ Apoptosis Detection Kit.

## CC(=O)O[C@H]1C(=O)[C@@]2(C)[C@H]([C@H](OC(=O)c3ccccc3)[C@]3(O)C[C@H](OC(=O)[C@H](O)[C@@H](NC(=O)c4ccccc4)c4ccccc4)C(C)=C1C3(C)C)[C@]1(OC(C)=O)CO[C@@H]1C[C@@H]2O [paclitaxel, reference compound]
[1]
  cytotoxic effect (MTT cell viability): significantly induced time-dependent cytotoxicity
[1]; listed as Ptxl
  cytotoxic effect (MTT cell viability): less susceptible
[2]
  cytotoxic effect (MTT cell viability): significantly induced time-dependent cytotoxicity
[3]
  cytotoxic effect (MTT cell viability): significantly induced time-dependent cytotoxicity
[3]; listed as Ptxl
  cytotoxic effect (MTT cell viability): less susceptible
[4]
  cytotoxic effect (MTT cell viability): significantly induced time-dependent cytotoxicity
[4]; listed as Ptxl
  cytotoxic effect (MTT cell viability): most toxic
LNCaP cells
  apoptotic cell death: induced apoptotic cell death
DU145 cells
  apoptotic cell death: induced apoptotic cell death
PC3 cells
  apoptotic cell death: induced apoptotic cell death
[5]
  apoptotic cell death: induced apoptotic cell death
PC3 xenograft tumors
  tumor growth inhibition vs PBS control: 52%
